According to the SangsterLogP compilation:

Assay: method code SF, from DOI: 10.1021/jm00266a011, PMID: 4583365
Conditions: not given
`CN(Cc1ccccc1)/N=N/c1nc[nH]c1C(N)=O` showed a logP of 1.54. Compound `N#CCC(=O)NC(CO)C(O)c1ccc([N+](=O)[O-])cc1` (stereo not given) has a logP of -0.22.

Assay: method code SF-AS, from DOI: 10.1021/jm00266a011, PMID: 4583365
Conditions: not given
Work on `CCC(CC)C(=O)N[C@H](CO)[C@H](O)c1ccc([N+](=O)[O-])cc1` yielded a logP of 1.71. `O=C(N[C@H](CO)[C@H](O)c1ccc([N+](=O)[O-])cc1)C(Br)(Br)Br` gave a logP of 2.17. Work on `O=C(NC(CO)C(O)c1ccc([N+](=O)[O-])cc1)C(F)(F)F` (stereo not given) yielded a logP of 1.07. For `O=C(N[C@H](CO)[C@H](O)c1ccc([N+](=O)[O-])cc1)C(Br)Br`, the logP was 1.36. In the case of `O=C(N[C@H](CO)[C@H](O)c1ccc([N+](=O)[O-])cc1)C(F)F`, the logP is reported as 0.42. Compound `CC(Cl)C(=O)NC(CO)C(O)c1ccc([N+](=O)[O-])cc1` (stereo not given) has a logP of 0.98. `O=C(N[C@@H](CO)[C@@H](O)c1ccc(I)cc1)C(Cl)Cl` (relative stereo) gave a logP of 2.22. `O=C(N[C@H](CO)[C@H](O)c1ccc(-c2ccccc2)cc1)C(Cl)Cl` gave a logP of 2.86. Work on `CCCC(=O)NC(CO)C(O)c1ccc([N+](=O)[O-])cc1` (stereo not given) yielded a logP of 0.87. With `CCCCCCCCN(C)/N=N/c1nc[nH]c1C(N)=O` the logP was 3.22. Compound `O=C(CI)N[C@H](CO)[C@H](O)c1ccc([N+](=O)[O-])cc1` has a logP of 1.03. `O=C(NC(CO)C(O)c1ccccc1)C(Cl)Cl` (stereo not given) gave a logP of 0.94. `O=C(Cc1ccccc1)NC(CO)C(O)c1ccc([N+](=O)[O-])cc1` (stereo not given) showed a logP of 1.52. `O=C(CF)NC(CO)C(O)c1ccc([N+](=O)[O-])cc1` (stereo not given) gave a logP of 0.15. For `N#CC(C(=O)NC(CO)C(O)c1ccc([N+](=O)[O-])cc1)c1ccccc1` (stereo not given), the logP was 1.47. `O=C(N[C@H](CO)[C@H](O)c1ccc(Br)cc1)C(Cl)Cl` gave a logP of 1.87. `O=C(CCl)NC(CO)C(O)c1ccc([N+](=O)[O-])cc1` (stereo not given) gave a logP of 0.59. Compound `O=C(NC(CO)C(O)c1ccc([N+](=O)[O-])cc1)C(Cl)(Cl)Cl` (stereo not given) has a logP of 1.97. Work on `O=C(NC(CO)C(O)c1ccc([N+](=O)[O-])cc1)c1ccccc1` (stereo not given) yielded a logP of 1.63. Compound `N#Cc1ccc([C@@H](O)[C@@H](CO)NC(=O)C(Cl)Cl)cc1` has a logP of 1.29. For `CC(=O)NC(CO)C(O)c1ccc([N+](=O)[O-])cc1` (stereo not given), the logP was -0.03. Compound `CC(C)C(=O)N[C@H](CO)[C@H](O)c1ccc([N+](=O)[O-])cc1` has a logP of 0.88.

Same assay, conditions: pH 7.4
With `CC(C)(C)C(=O)N[C@H](CO)[C@H](O)c1ccc([N+](=O)[O-])cc1` the logD was 1.33.
